Values after ≈ are worked out from the molar mass of the structure shown. Values joined by “and” are separate entries in the source; they are usually repeats but may differ in a detail not shown here. Equal values may be shown once.
Columns and labels:
Test in all cases: ≥ marks a high value that may be exact or a test limit, other limits are often not marked, values filed in µg/mL are converted to µM
[1] = test system: Staphylococcus aureus ATCC 33591
[2] = test system: Escherichia coli ATCC 2592
[3] = test system: Candida albicans ATCC 10231
[4] = test system: Cryptococcus neoformans ATCC 32045
[5] = test system: Pseudomonas aeruginosa ATCC 10145
[6] = test system: Pseudomonas aeruginosa H187
Escherichia coli UB1005 = test system: Escherichia coli UB1005
[7] = test system: Pseudomonas aeruginosa KCTC 1637
[8] = test system: Escherichia coli KCTC 1682
[9] = test system: Staphylococcus aureus CCARM 3090
[10] = test system: Staphylococcus epidermidis KCTC 1917
[11] = test system: Staphylococcus aureus CCARM 3089
[12] = test system: Staphylococcus aureus CCARM 3095
[13] = test system: Pseudomonas aeruginosa CCARM 2095
[14] = test system: Enterococcus faecium ATCC 51559
[15] = test system: Staphylococcus aureus KCTC 1621
[16] = test system: Bacillus subtilis KCTC 3068
[17] = test system: Salmonella typhimurium KCTC 1926
[18] = test system: Pseudomonas aeruginosa CCARM 2109
Escherichia coli K-12 = test system: Escherichia coli K-12
[19] = test system: Staphylococcus aureus JE2
Escherichia coli K88 = test system: Escherichia coli K88
[20] = test system: Pseudomonas aeruginosa ATCC 27853
[21] = test system: Staphylococcus epidermidis ATCC 12228
[22] = test system: Escherichia coli ATCC 25922
[23] = test system: Staphylococcus aureus ATCC 29213
[24] = test system: Escherichia coli CVCC 1515
[25] = test system: Salmonella enterica subsp. enterica serovar Typhimurium ATCC 14028

An MIC [1] of no less than 87.2 µM, an MIC [2] of 8.14 µM (≈ 23.3 µg/mL) and an MIC [3] of 61.7 µM (≈ 177 µg/mL) were found for `C[C@H](NC(=O)[C@H](Cc1ccccc1)NC(=O)[C@H](CCCCN)NC(=O)[C@H](CCCCN)NC(=O)[C@H](C)NC(=O)[C@H](Cc1ccccc1)NC(=O)[C@H](CCCCN)NC(=O)[C@H](CCCCN)NC(=O)[C@H](C)NC(=O)[C@H](Cc1ccccc1)NC(=O)[C@H](CCCCN)NC(=O)[C@H](CCCCN)NC(=O)[C@H](C)NC(=O)[C@H](Cc1ccccc1)NC(=O)[C@H](CCCCN)NC(=O)[C@H](CCCCN)NC(=O)[C@H](C)NC(=O)[C@H](Cc1ccccc1)NC(=O)[C@H](CCCCN)NC(=O)[C@H](CCCCN)NC(=O)[C@H](C)NC(=O)[C@@H](N)Cc1ccccc1)C(=O)N[C@@H](CCCCN)C(=O)N[C@@H](CCCCN)C(=O)O` [FAKKFAKKFAKKFAKKFAKKFAKK] in this work. For the same molecule, the MIC [4] was 7.9 µM (≈ 22.6 µg/mL) and the MIC [5] was 21.6 µM (≈ 62 µg/mL).
An MIC [6] of 2.7 µM (≈ 8 µg/mL) and an MIC (Escherichia coli UB1005) of 0.674 µM (≈ 2 µg/mL) were found for `CC[C@H](C)[C@H](NC(=O)[C@H](Cc1ccccc1)NC(=O)[C@H](CO)NC(=O)[C@H](CCCCN)NC(=O)[C@H](Cc1c[nH]c2ccccc12)NC(=O)[C@@H](N)CCCCN)C(=O)N[C@@H](CCCCN)C(=O)N[C@@H](CC(N)=O)C(=O)N[C@@H](CC(C)C)C(=O)N[C@@H](CCC(=O)O)C(=O)N[C@@H](CCCCN)C(=O)N[C@H](C(=O)N[C@@H](CC(C)C)C(=O)N[C@@H](CCCCN)C(=O)N[C@@H](CCCCN)C(=O)NCC(=O)N1CCC[C@H]1C(=O)N[C@H](C(=O)N[C@@H](CC(C)C)C(=O)N[C@@H](C)C(=O)N[C@@H](CC(N)=O)C(=O)N[C@@H](CC(C)C)C(=O)N[C@H](C(=O)N[C@@H](CO)C(=O)N[C@H](C(=O)N[C@H](C(=O)O)C(C)C)[C@@H](C)CC)C(C)C)[C@@H](C)CC)C(C)C` [KWKSFIKNLEKVLKKGPILANLVSIV] in this work.
An MIC [1] of no less than 179 µM, an MIC [2] of 8.11 µM (≈ 22.6 µg/mL) and an MIC [3] of 127 µM (≈ 354 µg/mL) were found for `C[C@H](NC(=O)[C@H](CCCCN)NC(=O)[C@H](Cc1ccccc1)NC(=O)[C@H](C)NC(=O)[C@H](CCCCN)NC(=O)[C@H](Cc1ccccc1)NC(=O)[C@H](C)NC(=O)[C@H](CCCCN)NC(=O)[C@H](Cc1ccccc1)NC(=O)[C@H](C)NC(=O)[C@H](CCCCN)NC(=O)[C@H](Cc1ccccc1)NC(=O)[C@H](C)NC(=O)[C@H](CCCCN)NC(=O)[C@H](Cc1ccccc1)NC(=O)[C@H](C)NC(=O)[C@H](CCCCN)NC(=O)[C@H](Cc1ccccc1)NC(=O)[C@H](C)NC(=O)[C@H](CCCCN)NC(=O)[C@H](Cc1ccccc1)NC(=O)[C@H](C)NC(=O)[C@H](CCCCN)NC(=O)[C@@H](N)Cc1ccccc1)C(=O)O` [FKAFKAFKAFKAFKAFKAFKAFKA] in this work. It also gave an MIC [4] of 8.11 µM (≈ 22.6 µg/mL) and an MIC [5] of 8.96 µM (≈ 25 µg/mL).
An MIC [7] of 12.5 µM (≈ 31 µg/mL), an MIC [8] of 12.5 µM (≈ 31 µg/mL) and an MIC [9] of 25 µM (≈ 62 µg/mL) were found for `CC[C@H](C)[C@@H]1NC(=O)[C@H]([C@@H](C)O)NC(=O)[C@H](Cc2cnc[nH]2)NC(=O)[C@H](CCCN=C(N)N)NC(=O)[C@H](C)NC(=O)[C@H](CCCN=C(N)N)NC(=O)[C@H](CC(C)C)NC(=O)[C@H](CO)NC(=O)[C@H](C)NC(=O)[C@@H](NC(=O)[C@H](CC(C)C)NC(=O)[C@@H](N)CC(N)=O)CSSC[C@@H](C(=O)N[C@@H](CCCN=C(N)N)C(=O)N[C@@H](CCCCN)C(=O)N[C@@H](Cc2ccccc2)C(=O)NCC(=O)N[C@@H](CCCN=C(N)N)C(=O)N[C@@H](CCCN=C(N)N)C(=O)O)NC(=O)[C@H](CCC(N)=O)NC(=O)[C@@H]2CCCN2C1=O` [NLCASLRARHTIPQCRKFGRR] in this work. The MIC [10] was 12.5 µM (≈ 31 µg/mL), the MIC [11] was 12.5 µM (≈ 31 µg/mL) and the MIC [12] was 12.5 µM (≈ 31 µg/mL). The MIC [13] was no less than 50 µM, the MIC [14] was 25 µM (≈ 62 µg/mL) and the MIC [15] was 12.5 µM (≈ 31 µg/mL). The MIC [16] was 12.5 µM (≈ 31 µg/mL) and the MIC [17] was 12.5 µM (≈ 31 µg/mL).
With `CC[C@H](C)[C@H](NC(=O)[C@H](C)NC(=O)[C@H](CCCN=C(N)N)NC(=O)[C@H](Cc1ccc(O)cc1)NC(=O)[C@H](CC(C)C)NC(=O)[C@H](CCCCN)NC(=O)[C@H](Cc1ccc(O)cc1)NC(=O)CNC(=O)[C@H](C)NC(=O)[C@H](CCCN=C(N)N)NC(=O)[C@@H](NC(=O)[C@H](Cc1c[nH]c2ccccc12)NC(=O)[C@H](CCCN=C(N)N)NC(=O)[C@@H](NC(=O)[C@@H](NC(=O)[C@@H](N)CC(C)C)C(C)C)[C@@H](C)CC)C(C)C)C(=O)N[C@@H](CCCCN)C(=O)N[C@@H](CCCCN)C(=O)N[C@@H](CCCCN)C(N)=O` [LVIRWVRAGYKLYRAIKKK] the MIC [7] was 8 µM (≈ 18.9 µg/mL), the MIC [8] was 4 µM and 8 µM and the MIC [9] was 2 µM (≈ 4.72 µg/mL). The MIC [10] was 4 µM (≈ 9.44 µg/mL), the MIC [11] was 4 µM (≈ 9.44 µg/mL) and the MIC [12] was 2 µM (≈ 4.72 µg/mL). The MIC [18] was 4 µM (≈ 9.44 µg/mL), the MIC [13] was 2 µM (≈ 4.72 µg/mL) and the MIC [14] was 4 µM (≈ 9.44 µg/mL). For the same molecule, the MIC [15] was 2 µM and 4 µM, the MIC [16] was 2 µM (≈ 4.72 µg/mL) and the MIC [17] was 2 µM (≈ 4.72 µg/mL).
An MIC (Escherichia coli K-12) of no less than 38.3 µM and an MIC [19] of no less than 153 µM were found for `CC[C@H](C)[C@H](NC(=O)[C@@H](NC(=O)[C@H](CO)NC(=O)[C@H](C)NC(=O)[C@@H](NC(=O)CNC(=O)[C@H](CCCCN)NC(=O)[C@H](CCCCN)NC(=O)[C@@H](NC(=O)[C@@H](NC(=O)[C@H](CC(=O)O)NC(=O)[C@H](Cc1ccccc1)NC(=O)[C@H](CC(C)C)NC(=O)CN)C(C)C)[C@@H](C)CC)C(C)C)C(C)C)C(=O)NCC(=O)NCC(=O)N[C@@H](CC(C)C)C(=O)O` [GLFDVIKKGVASVIGGL] in this work.
An MIC (Escherichia coli K88) of 4 µM (≈ 5.71 µg/mL), an MIC [20] of 8 µM (≈ 11.4 µg/mL) and an MIC [21] of 8 µM (≈ 11.4 µg/mL) were found for `CC(C)C[C@H](NC(=O)[C@H](CCCCN)NC(=O)[C@H](C)NC(=O)[C@H](C)NC(=O)[C@H](C)NC(=O)[C@H](CCCCN)NC(=O)[C@H](C)NC(=O)[C@H](C)NC(=O)[C@H](C)NC(=O)[C@H](CCCCN)NC(=O)[C@H](Cc1c[nH]c2ccccc12)NC(=O)[C@@H](N)CC(C)C)C(=O)N[C@@H](Cc1c[nH]c2ccccc12)C(N)=O` [LWKAAAKAAAKLW] in this work. For the same molecule, the MIC [22] was 4 µM (≈ 5.71 µg/mL), the MIC [23] was 8 µM (≈ 11.4 µg/mL) and the MIC [24] was 8 µM (≈ 11.4 µg/mL). It also gave an MIC [25] of 32 µM (≈ 45.7 µg/mL) and an MIC (Escherichia coli UB1005) of 8 µM (≈ 11.4 µg/mL).

Reference: DBAASP
